According to US7531533B2, “6-Membered heterocyclic compound and use thereof” (Asahi Kasei Pharma Corporation, priority 2005, dated 2009):

Key:
rat bone marrow cells = assay: Bone nodule formation action in rat bone marrow cells; format: cell-based
Description: Bone Nodule Formation Action in Rat Bone Marrow Cells
In order to investigate osteogenesis promoting action of the compounds of the present invention, the compounds were made to act on cultured rat bone marrow cells, and the number of formed bone nodule was counted.
As rat bone marrow cells, mesenchymal cells (KEM100) derived from rat bone marrow purchased from Dainippon Pharmaceutical were used. The cells stored in liquid nitrogen were thawed at 37° C., then suspended in a phosphate-buffered saline, and centrifuged at 900 rpm for 5 minutes. The supernatant was removed, and the cells were suspended again in a MEM culture medium (produced by GIBCO) containing 10% fetal bovine serum (produced by GIBCO). After the number of cells was counted, the cells were inoculated on a 12-well plate (produced by IWAKI) at a cell density of 1×10^4 cells/cm^2, and cultured at 37° C. in a 5% CO2 incubator. From the next day of the inoculation, the medium was exchanged with the α MEM culture medium containing 10% fetal bovine serum every 2 or 3 days, and the cells were proliferated to the confluent state. The addition of the compound was conducted from the next day after the cells reached confluent. […]

human EP4 receptor = target: T1, human EP4 receptor (Homo sapiens, UniProt P35408); assay: Agonist activity measurement (cAMP production) using human EP4 receptor expressing HEK293 cells; format: cell-based; details: test compound concentration of 10 μM, HEK293 stably expressing human EP4
T1 construct: expressed in transfected cells
Description: Agonist Activity Measurement Using Human EP4 Receptor Expressing Cells
In order to investigate EP4 receptor agonist activity of the compounds of the present invention, cAMP production was measured by using HEK293 in which the human EP4 receptor was stably expressed.
As a result of searching for prostaglandin E receptors using Refseq Database, the gene information of human EP4 (NM_000958) receptor was obtained. On the basis of the sequence information, the human EP4 receptor gene was cloned by PCR using human cDNA as a template in a conventional manner to establish HEK293 in which the human EP4 receptor was stably expressed. These cells were inoculated on a 96-well poly-D-lysine coated plate at a density of 2×10^4 cells/well, and cultured for 1 day. The medium in the wells was removed by aspiration, 80 μL of Dulbecco's modified Eagle's medium was added to each well, and the cells were incubated at 37° C. for 15 minutes. Then, 20 μL of an assay medium (Dulbecco's modified Eagle's medium containing 100 mM HEPES and 1 mM IBMX) containing PGE2 or a test compound (at 5-fold concentration of the final concentration) was added to start the reaction, and the reaction was allowed at 37° C. for 30 minutes. Then, the medium was removed by aspiration, and the reaction was terminated by adding 100 μL of Assay/Lysis Buffer included in cAMP Screen Kit (produced by Applied Biosystems). Then, the cells were incubated at 37° C. for 30 minutes, and used as a sample for cAMP quantification. By using this sample, amount of cAMP in the sample was quantified according to the method attached to cAMP Screen Kit.

T1 sequence (P35408 whole entry): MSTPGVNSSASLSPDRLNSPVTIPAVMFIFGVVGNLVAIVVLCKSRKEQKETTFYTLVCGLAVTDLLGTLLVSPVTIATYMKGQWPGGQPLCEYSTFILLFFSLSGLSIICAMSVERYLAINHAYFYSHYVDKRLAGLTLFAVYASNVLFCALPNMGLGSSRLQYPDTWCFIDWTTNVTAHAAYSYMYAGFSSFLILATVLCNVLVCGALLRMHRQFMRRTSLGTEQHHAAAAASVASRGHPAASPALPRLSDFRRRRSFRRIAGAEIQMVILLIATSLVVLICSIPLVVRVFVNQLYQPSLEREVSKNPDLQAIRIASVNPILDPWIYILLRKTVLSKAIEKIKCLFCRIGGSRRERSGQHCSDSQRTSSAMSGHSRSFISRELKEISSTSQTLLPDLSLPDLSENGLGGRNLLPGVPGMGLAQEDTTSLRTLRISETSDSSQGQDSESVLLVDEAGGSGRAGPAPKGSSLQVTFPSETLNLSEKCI

SMILES | bone nodule formation promoting action (number of mineralized bone nodule formed) (rat bone marrow cells; concentration ranging from 1 nM to 10 μM, von Kossa staining 21 to 28 days after addition) | cytotoxicity (rat bone marrow cells; rat bone marrow cells, 1 nM to 10 μM) | increase of cAMP (human EP4 receptor)
O=C(O)c1ccc(CCN2C(=O)CCCN2CCC(O)Cc2cccc(C(F)(F)F)c2)cc1 (stereo not shown) [IAH-H001, 4-[2-(2-{3-hydroxy-4-[3-(trifluoromethyl)phenyl]butyl}-6-oxotetrahydropyridazin-1-yl)ethyl]benzoic acid] | exhibited an bone nodule formation promoting action in a dose-dependent manner | no cytotoxicity | Increase of cAMP was observed
O=C(O)c1ccc(CCN2C(=O)CCCN2CCC(O)c2ccccc2)cc1 (stereo not shown) [IAH-H002] | – | – | Increase of cAMP was observed
O=C(O)c1ccc(CCN2C(=O)CCCN2CCC(O)c2ccc(F)cc2)cc1 (stereo not shown) [IAH-H003, 4-(2-{2-[3-hydroxy-3-(4-fluorophenyl)propyl]-6-oxotetrahydro-pyridazin-1-yl}ethyl)benzoic acid] | – | – | Increase of cAMP was observed
O=C(O)c1ccc(CCN2C(=O)CCCN2CCC(O)c2cccc(-c3ccc(F)cc3)c2)cc1 (stereo not shown) [IAH-H004, 4-[2-(2-{3-hydroxy-3-[3-(4-fluorophenyl)phenyl]propyl}-6-oxotetrahydropyridazin-1-yl)ethyl]benzoic acid] | – | – | Increase of cAMP was observed
COc1cccc(CC(O)CCN2CCCC(=O)N2CCc2ccc(C(=O)O)cc2)c1 (stereo not shown) [IAH-H005, 4-(2-{2-[3-hydroxy-4-(3-methoxyphenyl)butyl]-6-oxotetrahydro-pyridazin-1-yl}ethyl)benzoic acid] | – | – | Increase of cAMP was observed
O=C(O)c1ccc(CCN2C(=O)CCCN2CCC(O)Cc2cccc(Cl)c2)cc1 (stereo not shown) [IAH-H024, 4-[2-(2-{4-[3-chlorophenyl]-3-hydroxybutyl}-6-oxotetrahydropyridazin-1-yl)ethyl]benzoic acid] | – | – | Increase of cAMP was observed
O=C(O)COc1cccc(CN2C(=O)CCCN2CCC(O)Cc2cccc(C(F)(F)F)c2)c1 (stereo not shown) [ICH-H001, 2-{3-[(2-{3-hydroxy-4-[3-(trifluoromethyl)phenyl]butyl}-6-oxotetrahydropyridazin-1-yl)methyl]phenyloxy}acetic acid] | – | – | Increase of cAMP was observed
O=C(O)c1cccc(OCCN2C(=O)CCCN2CCC(O)Cc2cccc(C(F)(F)F)c2)c1 (stereo not shown) [IDH-H001, 3-[2-(2-{3-hydroxy-4-[3-(trifluoromethyl)phenyl]butyl}-6-oxotetrahydropyridazin-1-yl)ethyloxy]benzoic acid] | – | – | Increase of cAMP was observed
O=C(O)c1ccc(OCCN2C(=O)CCCN2CCC(O)Cc2cccc(C(F)(F)F)c2)cc1 (stereo not shown) [IEH-H001, 4-[2-(2-{3-hydroxy-4-[3-(trifluoromethyl)phenyl]butyl}-6-oxo-tetrahydropyridazin-1-yl)ethyloxy]benzoic acid] | – | – | Increase of cAMP was observed
O=C(O)c1cccc(CCCN2C(=O)CCCN2CCC(O)Cc2cccc(C(F)(F)F)c2)c1 (stereo not shown) [IFH-H001, 3-[3-(2-{3-hydroxy-4-[3-(trifluoromethyl)phenyl]butyl}-6-oxo-tetrahydropyridazin-1-yl)propyl]benzoic acid] | – | – | Increase of cAMP was observed
O=C(O)c1ccc(CCCN2C(=O)CCCN2CCC(O)Cc2cccc(C(F)(F)F)c2)cc1 (stereo not shown) [IGH-H001, 4-[3-(2-{3-hydroxy-4-[3-(trifluoromethyl)phenyl]butyl}-6-oxotetrahydropyridazin-1-yl)propyl]benzoic acid] | – | – | Increase of cAMP was observed
O=C(O)c1ccc(CCCN2C(=O)CCCN2CCC(O)Cc2cccc(C(F)(F)F)c2)o1 (stereo not shown) [IHH-H001, 5-[3-(2-{3-hydroxy-4-[3-(trifluoromethyl)phenyl]butyl}-6-oxotetrahydropyridazin-1-yl)propyl]furan-2-carboxylic acid] | – | – | Increase of cAMP was observed
O=C(O)Cc1ccc(CN2C(=O)CCCN2CCC(O)Cc2cccc(C(F)(F)F)c2)cc1 (stereo not shown) [IKH-H001, 2-{4-[(2-{3-hydroxy-4-[3-(trifluoromethyl)phenyl]butyl}-6-oxotetrahydropyridazin-1-yl)methyl]phenyl}acetic acid] | – | – | Increase of cAMP was observed
O=C(O)Cc1cccc(CN2C(=O)CCCN2CCC(O)Cc2cccc(C(F)(F)F)c2)c1 (stereo not shown) [ILH-H001, 2-{3-[(2-{3-hydroxy-4-[3-(trifluoromethyl)phenyl]butyl}-6-oxotetrahydropyridazin-1-yl)methyl]phenyl}acetic acid] | – | – | Increase of cAMP was observed
O=C(O)C=Cc1cccc(CN2C(=O)CCCN2CCC(O)Cc2cccc(C(F)(F)F)c2)c1 (stereo not shown) [IOH-H001, 3-{3-[(2-{3-hydroxy-4-[3-(trifluoromethyl)phenyl]butyl}-6-oxotetrahydropyridazin-1-yl)methyl]phenyl}acrylic acid] | – | – | Increase of cAMP was observed
O=C(O)CCc1cccc(CN2C(=O)CCCN2CCC(O)Cc2cccc(C(F)(F)F)c2)c1 (stereo not shown) [IPH-H001, 3-{3-[(2-{3-hydroxy-4-[3-(trifluoromethyl)phenyl]butyl}-6-oxotetrahydropyridazin-1-yl)methyl]phenyl}propionic acid] | – | – | Increase of cAMP was observed
O=C(O)c1ccc(CCN2C(=S)CCCN2CCC(O)Cc2cccc(C(F)(F)F)c2)cc1 (stereo not shown) [ITH-H001, 4-[2-(2-{3-hydroxy-4-[3-(trifluoromethyl)phenyl]butyl}-6-thioxotetrahydropyridazin-1-yl)ethyl]benzoic acid] | – | – | Increase of cAMP was observed
